Data as given in ChEMBL document CHEMBL4837181 (Eur J Med Chem, 2020).

Experiments:
[1] = Chemical stability of compound in saline assessed as compound remaining at 5 uM measured after 24 hrs by LC-MS/MS analysis; assay type: physicochemical; settings: read-out: Stabilty
[2] = Chemical stability of compound in 0.1 N aqueous HCl buffer assessed as compound remaining at pH 1 at 5 uM measured after 1.5 hrs by LC-MS/MS analysis; assay type: physicochemical; settings: pH 1, 1.5 h
[3] = Chemical stability of compound in 0.1 N aqueous HCl buffer assessed as compound remaining at pH 1 at 5 uM measured after 24 hrs by LC-MS/MS analysis; assay type: physicochemical; settings: pH 1, 24 h
[4] = Chemical stability of compound in PBS buffer assessed as compound remaining at pH 7.4 at 5 uM measured after 6 hrs by LC-MS/MS analysis; assay type: physicochemical; settings: read-out: Stabilty
[5] = Chemical stability of compound in PBS buffer assessed as compound remaining at pH 7.4 at 5 uM measured after 24 hrs by LC-MS/MS analysis; assay type: physicochemical; settings: read-out: Stabilty
[6] = Chemical stability of compound in simulated gastric fluid assessed as compound remaining at 5 uM measured after 1.5 hrs by LC-MS/MS analysis; assay type: ADME, physicochemical; settings: read-out: Stabilty
[7] = Chemical stability of compound in simulated gastric fluid assessed as compound remaining at 5 uM measured after 24 hrs by LC-MS/MS analysis; assay type: ADME, physicochemical; settings: read-out: Stabilty
[8] = Chemical stability of compound in simulated intestinal fluid assessed as compound remaining at 5 uM measured after 3 hrs by LC-MS/MS analysis; assay type: ADME, physicochemical; settings: read-out: Stabilty
[9] = Chemical stability of compound in simulated intestinal fluid assessed as compound remaining at 5 uM measured after 24 hrs by LC-MS/MS analysis; assay type: ADME, physicochemical; settings: read-out: Stabilty
[10] = Stability in mouse plasma assessed as parent compound remaining measured after 2 hrs by LC-MS/MS analysis; assay type: ADME, cell-free; settings: read-out: Stabilty
[11] = Stability in rat plasma assessed as parent compound remaining measured after 2 hrs by LC-MS/MS analysis; assay type: ADME, cell-free; settings: read-out: Stabilty
[12] = Stability in human plasma assessed as parent compound remaining measured after 6 hrs by LC-MS/MS analysis; assay type: ADME, cell-free; settings: read-out: Stabilty
[13] = Stability in human plasma assessed as parent compound remaining measured after 24 hrs by LC-MS/MS analysis; assay type: ADME, cell-free; settings: read-out: Stabilty
[14] = Dose normalized Cmax in rat at 10 mg/kg, po measured upto 72 hrs by LC-MS/MS analysis; assay type: ADME, organism-based; settings: in vivo
[15] = Dose normalized AUC (0 to infinity) in rat at 10 mg/kg, po measured upto 72 hrs by LC-MS/MS analysis; assay type: ADME, organism-based; settings: in vivo
[16] = Change in normalised Cmax in rat at 10 mg/kg, po measured upto 72 hrs by LC-MS/MS analysis; assay type: ADME, organism-based; settings: in vivo
[17] = Change in normalised AUCinfinity in rat at 10 mg/kg, po measured upto 72 hrs by LC-MS/MS analysis; assay type: ADME, organism-based; settings: in vivo
[18] = Change in Cmax in rat at 37 umol/kg, po measured upto 72 hrs by LC-MS/MS analysis; assay type: ADME, organism-based; settings: in vivo, at 37 µmol/kg
[19] = Change in AUC (infinity) in rat at 37 umol/kg, po measured upto 72 hrs by LC-MS/MS analysis; assay type: ADME, organism-based; settings: in vivo, at 37 µmol/kg

SMILES | remaining at 24 h, 5 µM [1] [%] | Stabilty [2] [%] | Stabilty [3] [%] | remaining at 6 h, 5 µM [4] [%] | remaining at 24 h, 5 µM [5] [%] | remaining at 1.5 h, 5 µM [6] [%] | remaining at 24 h, 5 µM [7] [%] | remaining at 3 h, 5 µM [8] [%] | remaining at 24 h, 5 µM [9] [%] | remaining at 2 h [10] [%] | remaining at 2 h [11] [%] | remaining at 6 h [12] [%] | remaining at 24 h [13] [%] | Cmax/dose [14] [µM] | AUC/dose [15] [µM·h] | Activity [16] [%] | Activity [17] [%] | Activity [18] [%] | Activity [19] [%]
Cl.Cn1cc(C[C@@H](N)C(=O)N[C@H](Cc2cn(C)c3ccccc23)C(=O)O)c2ccccc21 | 91 | 45 | 91 | 100 | 34 | 63 | 49 | 81 | 77 | 65 | 80 | 92 | 82 | 3 | 262 | -83 | -48 | – | –
CCOC(=O)[C@@H](Cc1cn(C)c2ccccc12)NC(=O)[C@@H](N)CC(C)C.CS(=O)(=O)O | – | – | – | – | – | – | – | – | – | – | – | – | – | – | – | – | – | 111 | 127
CCOC(=O)[C@@H](Cc1cn(C)c2ccccc12)NC(=O)[C@@H](N)CC(C)C.O=S(=O)(O)O | – | – | – | – | – | – | – | – | – | – | – | – | – | – | – | – | – | -23 | -5
Cn1cc(C[C@@H](N)C(=O)OCC2CCNCC2)c2ccccc21.O=P(O)(O)O | – | – | – | – | – | – | – | – | – | – | – | – | – | – | – | – | – | -79 | -64
Cl.Cn1cc(C[C@@H](NC(=O)[C@H](N)Cc2c[nH]c3ccccc23)C(=O)O)c2ccccc21 | 87 | 53 | 87 | 81 | 45 | 51 | 48 | 53 | 51 | 82 | 79 | 77 | 32 | 3.2 | 182 | -82 | -64 | – | –
Cl.Cn1cc(C[C@@H](NC(=O)[C@@H](N)CCC(N)=O)C(=O)O)c2ccccc21 | 78 | 65 | 78 | 100 | 74 | 83 | 83 | 53 | 0 | 49 | 100 | 93 | 83 | 8.5 | 372 | -51 | -27 | – | –
CCOC(=O)[C@@H](Cc1cn(C)c2ccccc12)NC(=O)[C@@H](N)CCC(N)=O | – | – | – | – | – | – | – | – | – | – | – | – | – | – | – | – | – | 5 | -16
Cn1cc(C[C@@H](NC(=O)[C@@H](N)CCCCN)C(=O)O)c2ccccc21.O=P(O)(O)O | – | – | – | – | – | – | – | – | – | – | – | – | – | – | – | – | – | 4 | -17
Cl.Cn1cc(C[C@@H](NC(=O)[C@@H](N)CCC(=O)O)C(=O)O)c2ccccc21 | 91 | 99 | 91 | 81 | 60 | 90 | 88 | 88 | 85 | 100 | 100 | 90 | 86 | 17.6 | 574 | 2 | 13 | – | –
Cn1cc(C[C@@H](NC(=O)[C@@H](N)CCCCN)C(=O)O)c2ccccc21 | – | – | – | – | – | – | – | – | – | – | – | – | – | – | – | – | – | -17 | -13
Cl.Cn1cc(C[C@@H](N)C(=O)OCC(N)C(=O)O)c2ccccc21 (single isomer, unassigned) | 70 | 10 | 70 | 0 | 0 | 56 | 56 | 0 | 0 | 80 | 84 | 0 | 0 | 13.3 | 588 | -23 | 16 | – | –
CCOC(=O)[C@@H](Cc1cn(C)c2ccccc12)NC(=O)[C@@H](N)[C@@H](C)CC.Cl | 97 | 95 | 97 | 97 | 63 | 98 | 97 | 91 | 38 | 0 | 0 | 75 | 16 | 12.8 | 606 | -26 | 19 | – | –
